In publication PMC8296573, “Synthesis and Biological Evaluation of Fingolimod Derivatives as Antibacterial Agents” (ACS Omega, 2021):
Values after ≈ are worked out from the molar mass of the structure shown. Like-named read-outs stand apart in the source and are kept apart here.

How the values were obtained:
[1] = tested on: A. baumannii NCTC 13423; assay: Antibacterial activity, pre-exposure; type: cell-based, Acinetobacter baumannii; conditions: for Average inhibition %, biofilms viability / Average inhibition %, planktonic cells viability / inhibition at 10 µM / inhibition at 15 µM / inhibition at 25 µM / inhibition at 50 µM: A. baumannii NCTC 13423, pre-exposure, ± SD; for inhibition at 10 µM / inhibition at 15 µM / inhibition at 25 µM / inhibition at 50 µM: Acinetobacter baumannii, NCTC13423
Description: (§1) The antimicrobial activity was assessed in a similar way for the initial screening and the dose–response evaluation against different bacterial strains. With the exception of the post-exposure experiment, the compounds were added to the wells along with the bacteria to test the ability of compounds to prevent bacterial growth and biofilm formation (pre-exposure). The compounds were diluted in DMSO and plated directly in 96-well plates before adding the bacterial culture, and plates were incubated for 18 h under aerobic conditions at 37 °C with shaking (220 rpm). The antibacterial activity of the compounds was assessed on planktonic cells and biofilms separately using two different measurements for each: optical density (turbidity) and resazurin reduction (viability) on planktonic cells and resazurin followed by a crystal violet staining assay (total biomass) on biofilms, as described in the following sections.
(§2) The resazurin staining was performed according to the protocol previously optimized with a few modifications.[46] Briefly, the planktonic solution was first transferred into a new 96-well plate and the OD of the planktonic solution was measured using a Varioskan LUX Multimode microplate reader (Thermo Scientific, Vantaa, Finland). Then, 10 μL of a 400 μM resazurin (R7017, Sigma-Aldrich, St. Louis, MO) diluted in phosphate-buffered saline (PBS) (Thermo Fisher Scientific, MA) was added to the wells (for a final resazurin concentration of 20 μM). The plate was incubated in the dark with shaking (220 rpm) for about 3–10 min at room temperature with S. aureus and A. baumannii (until the bacteria controls turned pink) or for 20 min at 37 °C with P. aeruginosa. Fluorescence was measured at λex = 560 nm and λem = 590 nm using the top optics of the Varioskan LUX Multimode microplate reader. The planktonic plate was then discarded. The original challenge plate containing the biofilms was washed once with PBS, and 200 μL of a 20 μM resazurin solution was added to the wells. The plate was incubated in the dark at 37 °C with shaking (220 rpm) for 30 min with S. aureus, 60 min with A. baumannii, and 90 min with P. aeruginosa. Fluorescence was measured as described for the planktonic solution. The biofilms were next treated with crystal violet staining.
(§3) After removing the resazurin solution from the plate, biofilms were fixed with ethanol 100% for 15 min at room temperature. Ethanol was then removed, and the biofilms were left to air-dry completely at RT. Crystal violet, diluted to 1:100 in deionized water from the 2.3% commercial solution (HT90132, Sigma-Aldrich, St. Louis, MO), was added to the wells and, after a 5 min incubation with the dye, the biofilms were washed twice with deionized water and left to air-dry for about 10 min. The dye was solubilized in ethanol 100% for 1 h, and absorbance was measured at 595 nm using a Multiskan Sky microplate spectrophotometer (Thermo Scientific, Vantaa, Finland).

[2] = tested on: S. aureus ATCC 25923; assay: Antibacterial activity, pre-exposure (planktonic cells and biofilm formation); type: cell-based, Staphylococcus aureus; conditions: for MIC / inhibition at 5 µM / inhibition at 10 µM / inhibition at 15 µM / inhibition at 25 µM: Staphylococcus aureus, ATCC25923; for inhibition at 5 µM / inhibition at 10 µM / inhibition at 15 µM / inhibition at 25 µM / Average inhibition %, biofilms viability / Average inhibition %, planktonic cells viability: pre-exposure, ± SD
Summary of the method: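 Growth prevention was tested by adding compounds together with the inoculum. Plates were incubated 18 h at 37 °C. Viability was read by resazurin fluorescence and biomass by crystal violet absorbance at 595 nm.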

[3] = tested on: P. aeruginosa ATCC 9027; assay: Antibacterial activity, pre-exposure; type: cell-based, Pseudomonas aeruginosa; conditions: for Average inhibition %, biofilms viability / Average inhibition %, planktonic cells viability / inhibition at 50 µM / inhibition at 100 µM / inhibition at 150 µM / inhibition at 200 µM: P. aeruginosa ATCC 9027, pre-exposure, ± SD; for inhibition at 50 µM / inhibition at 100 µM / inhibition at 150 µM / inhibition at 200 µM: Pseudomonas aeruginosa, ATCC9027
Description: as §1, §2, §3

[4] = tested on: S. aureus ATCC 25923; assay: Antibacterial activity, post-exposure on preformed 18-h-old biofilms; type: cell-based, Staphylococcus aureus; conditions: ± SD; for inhibition at 25 µM / inhibition at 50 µM / inhibition at 100 µM / inhibition at 200 µM: Staphylococcus aureus; for inhibition at 25 µM: ATCC25923, 25 µM; for inhibition at 50 µM: ATCC25923, 50 µM; for inhibition at 100 µM: ATCC25923, 100 µM; for inhibition at 200 µM: ATCC25923, 200 µM
Description: For the post-exposure experiment, bacteria were grown with no compounds in the same conditions for 18 h, after which the media was changed, and compounds were added on the preformed biofilms. The plates were then incubated in the same conditions for an additional 24 h before proceeding to the staining assays.
as §2, §3

[5] = 10 µM, read-out: Average inhibition %, biofilms biomass
[6] = 10 µM, read-out: Average inhibition %, planktonic cells turbidity
[7] = 15 µM, read-out: Average inhibition %, biofilms biomass
[8] = 15 µM, read-out: Average inhibition %, planktonic cells turbidity
[9] = 25 µM, read-out: Average inhibition %, biofilms biomass
[10] = 25 µM, read-out: Average inhibition %, planktonic cells turbidity
[11] = 50 µM, read-out: Average inhibition %, biofilms biomass
[12] = 50 µM, read-out: Average inhibition %, planktonic cells turbidity
[13] = read-out: Average inhibition %, biofilms biomass
[14] = read-out: Average inhibition %, planktonic cells turbidity

MIC A. baumannii NCTC 13423 ([1]; pre-exposure, Inactive = no activity up to 50 μM, > = some inhibition but no MIC reached): Inactive | MIC ([2]; lowest concentration with no visible growth (>90% inhibition of turbidity and viability of planktonic cells), 18 h, read-out: MIC S. aureus ATCC 25923): 25 to 100 µM (≈ 8.54 to 34.1 µg/mL) | MIC ([2]; read-out: MIC (S. aureus)): 25 to 100 µM (≈ 8.54 to 34.1 µg/mL) | MIC P. aeruginosa ATCC 9027 ([3]; pre-exposure, Inactive = no activity up to 200 μM, > = some inhibition but no MIC reached): Inactive
SMILES: CCCCCc1ccc(-c2ccc(CCC(N)(CO)CO)cc2)cc1 [Compound 15, 2-Amino-2-[2-(4′-pentyl-[1,1′-biphenyl]-4-yl)ethyl]propane-1,3-diol]
Average inhibition %, biofilms viability ([1]; 10 µM): 0 ± 0% | Average inhibition %, planktonic cells viability ([1]; 10 µM): 11 ± 1.5% | Average inhibition %, biofilms viability ([1]; 15 µM): 1 ± 1.5% | Average inhibition %, planktonic cells viability ([1]; 15 µM): 8.7 ± 2.5% | Average inhibition %, biofilms viability ([1]; 25 µM): 2.8 ± 2.6% | Average inhibition %, planktonic cells viability ([1]; 25 µM): 7.8 ± 6.9% | Average inhibition %, biofilms viability ([1]; 50 µM): 7.1 ± 0.8% | Average inhibition %, planktonic cells viability ([1]; 50 µM): 0 ± 0% | inhibition at 10 µM [1, 5]: 0% | inhibition at 10 µM [1, 6]: 0% | inhibition at 15 µM [1, 7]: 0.8 ± 1.4% | inhibition at 15 µM [1, 8]: 0% | inhibition at 25 µM [1, 9]: 0% | inhibition at 25 µM [1, 10]: 0% | inhibition at 50 µM [1, 11]: 4.8 ± 4.9% | inhibition at 50 µM [1, 12]: 0% | Initial screening result (active = at least 60% inhibition of planktonic cells and biofilm formation) ([2]; 50 μM, S. aureus): active | inhibition at 5 µM ([2]; 5 µM, read-out: Average inhibition %, biofilms biomass): 44.4 ± 15% | inhibition at 5 µM ([2]; 5 µM, read-out: Average inhibition %, planktonic cells turbidity): 44.9 ± 12.3% | inhibition at 10 µM [2, 5]: 68.5 ± 20.6% | inhibition at 10 µM [2, 6]: 70.3 ± 19.8% | inhibition at 15 µM [2, 7]: 75.8 ± 18.7% | inhibition at 15 µM [2, 8]: 72.5 ± 23.2% | inhibition at 25 µM [2, 9]: 70.7 ± 26.8% | inhibition at 25 µM [2, 10]: 76.5 ± 19.4% | Average inhibition %, biofilms viability ([2]; 5 µM): 42.5 ± 7.6% | Average inhibition %, planktonic cells viability ([2]; 5 µM): 2.6 ± 4.5% | Average inhibition %, biofilms viability ([2]; 10 µM): 71.3 ± 19.4% | Average inhibition %, planktonic cells viability ([2]; 10 µM): 50.9 ± 46% | Average inhibition %, biofilms viability ([2]; 15 µM): 70.4 ± 24.5% | Average inhibition %, planktonic cells viability ([2]; 15 µM): 33.2 ± 57.6% | Average inhibition %, biofilms viability ([2]; 25 µM): 79.3 ± 18.7% | Average inhibition %, planktonic cells viability ([2]; 25 µM): 33.1 ± 57.3% | Average inhibition %, biofilms viability ([3]; 50 µM): 0 ± 0% | Average inhibition %, planktonic cells viability ([3]; 50 µM): 22.3 ± 2% | Average inhibition %, biofilms viability ([3]; 100 µM): 0 ± 0% | Average inhibition %, planktonic cells viability ([3]; 100 µM): 12 ± 14% | Average inhibition %, biofilms viability ([3]; 150 µM): 0.5 ± 0.8% | Average inhibition %, planktonic cells viability ([3]; 150 µM): 5.5 ± 6.3% | Average inhibition %, biofilms viability ([3]; 200 µM): 0 ± 0% | Average inhibition %, planktonic cells viability ([3]; 200 µM): 7.2 ± 6.3% | inhibition at 50 µM [3, 11]: 2.2 ± 2.2% | inhibition at 50 µM [3, 12]: 12.6 ± 9.1% | inhibition at 100 µM ([3]; 100 µM, read-out: Average inhibition %, biofilms biomass): 3.7 ± 3% | inhibition at 100 µM ([3]; 100 µM, read-out: Average inhibition %, planktonic cells turbidity): 11.3 ± 12.7% | inhibition at 150 µM ([3]; 150 µM, read-out: Average inhibition %, biofilms biomass): 4.4 ± 1.9% | inhibition at 150 µM ([3]; 150 µM, read-out: Average inhibition %, planktonic cells turbidity): 15.7 ± 13.7% | inhibition at 200 µM ([3]; 200 µM, read-out: Average inhibition %, biofilms biomass): 12 ± 10.7% | inhibition at 200 µM ([3]; 200 µM, read-out: Average inhibition %, planktonic cells turbidity): 13.7 ± 14.3% | Average inhibition %, biofilms viability ([4]; 25 µM): 19 ± 6.6% | Average inhibition %, planktonic cells viability ([4]; 25 µM): 3.6 ± 6.3% | Average inhibition %, biofilms viability ([4]; 50 µM): 30.8 ± 8.5% | Average inhibition %, planktonic cells viability ([4]; 50 µM): 1.2 ± 2.1% | Average inhibition %, biofilms viability ([4]; 100 µM): 31.9 ± 6.2% | Average inhibition %, planktonic cells viability ([4]; 100 µM): 3.8 ± 6.6% | Average inhibition %, biofilms viability ([4]; 200 µM): 38.7 ± 13.3% | Average inhibition %, planktonic cells viability ([4]; 200 µM): 29.1 ± 25.2% | inhibition at 25 µM [4, 13]: 34.9 ± 12.7% | inhibition at 25 µM [4, 14]: 16.8 ± 10% | inhibition at 50 µM [4, 13]: 44.9 ± 6.2% | inhibition at 50 µM [4, 14]: 14.7 ± 13.4% | inhibition at 100 µM [4, 13]: 43.6 ± 7.8% | inhibition at 100 µM [4, 14]: 17.9 ± 1.1% | inhibition at 200 µM [4, 13]: 45.5 ± 18.5% | inhibition at 200 µM [4, 14]: 47.4 ± 13.9%
